Tested on: synthetic drug-inducible transcription factor (SynTF) fused to a SynZip
Test: STUD negative feedback circuit regulating SynTF in Jurkat T cells, GFP reporter
Type: cell-based
Conditions: GZV 72 hours at 37 C
Description: FIG. 6A: STUDs can be composed into negative feedback circuit to regulate synthetic transcription factor (SynTF). Cartoon diagram of plasmids used in negative feedback circuit transduced into Jurkat T cells. Synthetic transcription factors used in this work (grey) are made up of a transcriptional activation domain (AD) and a DNA binding domain (DBD) separated by a NS3 protease. In the absence of the NS3 inhibitor grazoprevir (GZV), the TF is destabilized and non-functional. On the other hand, the addition of GZV stabilizes the TF and allows for transcription of the gene cassette downstream of the SynTF promoter (pSynTF). Three types of circuits were designed: (1) A negative feedback circuit that has the SynTF driving expression of the GFP reporter and the STUD which results in degradation of the SynTF and shut off the circuit. […]
The circuit has three components: (1) a synthetic drug-inducible transcription factor (SynTF) fused to a SynZip, (2) a GFP reporter, and (3) a SynZip STUD that targets the SynTF (FIG. 6A). […] After incubation, we assay for GFP fluorescence by flow cytometry and gate on cells expressing the co-transduction markers (mCherry and tagBFP) for both plasmids relative to a untransduced control. […]

SynZip STUD: Fusion protein SEQ ID NO: 413: lysine-free modified synZIP18 heterodimerization domain, flexible linker, C-terminal RRRG degron; 55 amino acids (SIAATLENDLARLENENARLERDIANLERDLARLEREEAYFGSGSGSGSGSRRRG)
inhibition of SynTF (fold change of median GFP relative to DMSO): inhibits the SynTF

From patent publication US20250136652A1, “FUSION PROTEIN FOR TARGETING RECOMBINANT PROTEINS FOR DEGRADATION” (The Regents of the University of California, priority 2022, published 2025)
